Biological target: prolyl 4-hydroxylase beta polypeptide (P4HB) (Homo sapiens, UniProt P07237)
Experiment: surface plasmon resonance (Biacore […])
Format: binding

Chain of prolyl 4-hydroxylase beta polypeptide (P4HB) (P07237 18-508): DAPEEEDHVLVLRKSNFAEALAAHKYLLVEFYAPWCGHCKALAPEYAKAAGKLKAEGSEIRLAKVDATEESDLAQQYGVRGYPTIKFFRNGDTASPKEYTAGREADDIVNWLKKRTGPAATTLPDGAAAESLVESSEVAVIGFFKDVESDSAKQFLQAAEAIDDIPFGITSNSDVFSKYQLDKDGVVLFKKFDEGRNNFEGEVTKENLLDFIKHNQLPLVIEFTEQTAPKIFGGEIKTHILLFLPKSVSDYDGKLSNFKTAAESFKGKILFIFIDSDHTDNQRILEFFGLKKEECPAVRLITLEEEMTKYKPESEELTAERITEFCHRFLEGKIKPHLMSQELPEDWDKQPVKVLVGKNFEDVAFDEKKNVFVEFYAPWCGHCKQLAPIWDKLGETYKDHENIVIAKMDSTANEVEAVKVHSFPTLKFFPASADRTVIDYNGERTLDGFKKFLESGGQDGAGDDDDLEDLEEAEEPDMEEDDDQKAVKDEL

- Kd: 13.8 µM
Structure (SMILES): OC[C@H]1O[C@@H](OCCc2ccc(O)cc2)[C@H](O)[C@@H](O)[C@@H]1O [SAL, Salidroside]
